Results as given in US7300763B2, “Method of testing myelotoxicity with the use of flow cytometer” (Teijin Limited, priority 2000, dated 2007).

Key:
rat bone marrow cells [1] = assay: Myelotoxicity by flow cytometer analysis of cell surface antigen-expressing bone marrow cells after administration of 5-FU; assay type: in vivo; conditions: 50 mg/kg/day intravenously; for Number of CD45 Peak 1-expressing cells / Number of CD45 Peak 2-expressing cells / Number of CD45R-expressing cells / Number of CD71-expressing cells / Number of CD90-expressing cells: n = 3
Method: (1) Six-week-old male CD (SD) IGS rats purchased from Charles River Japan were used at the age of 8 weeks. During the housing period, the rats were fed with a feed for animals (Oriental Yeast Co., Ltd., CRF-1) and drinking water (well water containing 0.4% of a hypochlorite added) ad libitum. The animals were housed in metal cages (one animal per cage) and kept under conditions of a temperature of 23±1° C. and a humidity of 55±15%.
(2) The bone marrow was collected from left and right femurs. The femurs were taken out under anaethesia with pentobarbital, and both ends of the femurs were cut. The bone marrow was then flushed out with 1 mL of fetal bovine serum using a syringe with a 25G injection needle. Bone pieces or the like were removed by using a Pasteur pipette, and cells were then collected by centrifugation (3,000 rpm for 5 minutes).
(3) To 20 μL of the cells collected in (2), was added 5 mL of a phosphate-buffer-solution (PBS). Thereby, a cell suspension was obtained.
(4) To 200 μL of the cell suspension in (3), was added 2 μg of a specific antibody to the cell surface antigen. Incubation was carried out at room temperature for 45 minutes. Mouse IgG2a anti-rat CD2, mouse IgG1 anti-rat CD8, mouse IgA anti-rat CD11b, mouse IgG1 anti-rat CD45, mouse IgG2b anti-rat CD45R, mouse IgG2a anti-rat CD71 and mouse IgG2a anti-rat CD90 were used as the antibody. Mouse IgG1, mouse IgG2a, mouse IgG2b and mouse IgA were used as the isotype control antibody. All the antibodies labeled with fluorescein (FITC) (Pharmingen.) were used as the antibody.
(5) After incubation, 1 mL of Optilyse C (Beckman Coulter.) was added, and treatment was carried out for 10 minutes to hemolyze erythrocytes. After the hemolytic treatment, 1 mL of PBS was added, and incubation was carried out at room temperature for 10 minutes.
(6) Procedures of adding 1 mL of PBS to a cell precipitation obtained by centrifugation (3,000 rpm for 5 minutes) after incubation and thereby washing the cells were repeated twice.
(7) After washing, 2 mL of PBS was added to the cell precipitation to provide a cell suspension. Analysis was carried out with the use of a flow cytometer (EPICS XL-MCL, Beckman Coulter.) The analysis was conducted by following procedures described below. […] The fluorescence detector sensitivity of the flow cytometer was adjusted with the cells treated with the isotype antibody.
(§1) (2) 5-Fluorouracil (hereinafter abbreviated to 5-FU) as a chemotherapeutic agent in a dose of 50 mg/kg/day ([…], 10 mL/kg) was intravenously administered to the rats, and a physiological saline solution was used as the control substance.
(§2) The days of the experiment were indicated by the day of starting the administration as day 0. Groups for collecting the bone marrow on the day 0 and day 5 of the experiment were respectively set as groups administered with the control substance. Groups for collecting the bone marrow from day 1 to day 5 of the experiment were respectively set as groups administered with the 5-FU. The number of animals in each group was 3.
(4) Bone marrow collection, antibody treatment and analysis with the flow cytometer were carried out according to Example 1. A flow count (Beckman Coulter.) was added to the cell suspension during the flow cytometer analysis, and a calibration region was set on the cytogram of EPIS XL-MCL to make measurement. The absolute number of the respective cell surface antigen-expressing cells was calculated. Mouse IgGI anti-rat CD45, mouse IgG2b anti-rat CD45R, mouse IgG2a anti-rat CD71 and mouse IgG2a anti-rat CD90 were used as the antibody, and mouse IgG1, mouse IgG2a and mouse IgG2b were used as the isotype control antibody.
(6) The expression of cell surface antigens was measured for 15,000 bone marrow cells per individual with the use of the flow cytometer.

rat bone marrow cells [2] = assay: Observation of smears of bone marrow (May-Grünwald and Giemsa staining) in rats administered with 5-FU; assay type: in vivo; set-up: key to Number of Cells, Erythroblasts / Number of Cells, Immature Myelocytes: —: Undetected; conditions: 50 mg/kg/day intravenously
Method: as §1, §2
(5) A part of bone marrow cells were suspended in an adequate amount of fetal bovine serum. An adequate amount of the resulting suspension was then dropped onto a slide glass, and a cover glass was obliquely applied to the droplet of the bovine fetal serum containing the bone marrow cells. The slide glass was directly moved to prepare smears (the wedge method). Each smear was subjected to May-Grünwald and Giemsa staining to carry out microscopic observation, and the ratio of the cells was calculated for each lineage and differentiation stage. After calculating the ratio, the resulting ratio was multiplied by the separately obtained number of bone marrow cells to determine the absolute number by observing the smear of each cell.
(7) Observation of smears was carried out for 500 bone marrow cells per individual (one smear).

## O=c1[nH]cc(F)c(=O)[nH]1 [5-FU, 5-Fluorouracil]
Rat bone marrow cells [1]; Day 1, Mean ± SD
  Number of CD45 Peak 1-expressing cells: 1.65 ± 0.68 ×10^6/μL
  Number of CD45 Peak 2-expressing cells: 0.76 ± 0.32 ×10^6/μL
  Number of CD45R-expressing cells: 1.54 ± 0.69 ×10^6/μL
  Number of CD71-expressing cells: 0.46 ± 0.17 ×10^6/μL
  Number of CD90-expressing cells: 1.76 ± 0.79 ×10^6/μL
Rat bone marrow cells [1]; Day 2, Mean ± SD
  Number of CD45 Peak 1-expressing cells: 1.20 ± 0.32 ×10^6/μL
  Number of CD45 Peak 2-expressing cells: 0.82 ± 0.20 ×10^6/μL
  Number of CD45R-expressing cells: 1.46 ± 0.27 ×10^6/μL
  Number of CD71-expressing cells: 0.30 ± 0.15 ×10^6/μL
  Number of CD90-expressing cells: 1.58 ± 0.18 ×10^6/μL
Rat bone marrow cells [1]; Day 3, Mean ± SD
  Number of CD45 Peak 1-expressing cells: 0.34 ± 0.13 ×10^6/μL
  Number of CD45 Peak 2-expressing cells: 0.75 ± 0.25 ×10^6/μL
  Number of CD45R-expressing cells: 0.59 ± 0.11 ×10^6/μL
  Number of CD71-expressing cells: 0.09 ± 0.05 ×10^6/μL
  Number of CD90-expressing cells: 0.49 ± 0.10 ×10^6/μL
Rat bone marrow cells [1]; Day 4, Mean ± SD
  Number of CD45 Peak 1-expressing cells: 0.05 ± 0.02 ×10^6/μL
  Number of CD45 Peak 2-expressing cells: 0.64 ± 0.24 ×10^6/μL
  Number of CD45R-expressing cells: 0.41 ± 0.12 ×10^6/μL
  Number of CD71-expressing cells: 0.02 ± 0.02 ×10^6/μL
  Number of CD90-expressing cells: 0.16 ± 0.06 ×10^6/μL
Rat bone marrow cells [1]; Day 5, Mean ± SD
  Number of CD45 Peak 1-expressing cells: 0.03 ± 0.02 ×10^6/μL
  Number of CD45 Peak 2-expressing cells: 0.51 ± 0.06 ×10^6/μL
  Number of CD45R-expressing cells: 0.32 ± 0.08 ×10^6/μL
  Number of CD71-expressing cells: 0.02 ± 0.01 ×10^6/μL
  Number of CD90-expressing cells: 0.09 ± 0.02 ×10^6/μL
Rat bone marrow cells [1]; day 1 to day 5
  Change of number of CD45 (Peak 1)-expressing cells, in words: began decreasing in a period between day 1 and day 2 of the experiment and was decreased to such an extent of the scarcely observed expressing cells on day 4 of the experiment
  Change of number of CD45 (Peak 2)-expressing cells, in words: A decrease was not observed
  Change of number of CD45R-expressing cells, in words: the decrease continued on day 3 of the experiment and thereafter
  Change of number of CD71-expressing cells, in words: decreased to such an extent of the scarcely observed expressing cells on day 3 of the experiment and thereafter
  Change of number of CD90-expressing cells, in words: markedly decreased on day 3 of the experiment and thereafter
Rat bone marrow cells [2]; Day 1, Mean ± SD, n = 3
  Number of Cells, Erythroblasts: 0.18 ± 0.07 ×10^6/μL
  Number of Cells, Immature Myelocytes: 0.20 ± 0.10 ×10^6/μL
  Number of Cells, Lymphocytes: 2.01 ± 0.86 ×10^6/μL
  Number of Cells, Mature Myelocytes: 0.49 ± 0.22 ×10^6/μL
Rat bone marrow cells [2]; Day 2, Mean ± SD, n = 3
  Number of Cells, Erythroblasts: 0.02 ± 0.03 ×10^6/μL
  Number of Cells, Immature Myelocytes: 0.09 ± 0.04 ×10^6/μL
  Number of Cells, Lymphocytes: 1.46 ± 0.21 ×10^6/μL
  Number of Cells, Mature Myelocytes: 0.95 ± 0.32 ×10^6/μL
Rat bone marrow cells [2]; Day 3, Mean ± SD, n = 3
  Number of Cells, Erythroblasts: 0.003 ± 0.001 ×10^6/μL
  Number of Cells, Immature Myelocytes: 0.003 ± 0.001 ×10^6/μL
  Number of Cells, Lymphocytes: 0.62 ± 0.13 ×10^6/μL
  Number of Cells, Mature Myelocytes: 0.39 ± 0.03 ×10^6/μL
Rat bone marrow cells [2]; Day 4, Mean ± SD, n = 3
  Number of Cells, Erythroblasts: 0.001 ± 0.001 ×10^6/μL
  Number of Cells, Lymphocytes: 0.56 ± 0.20 ×10^6/μL
  Number of Cells, Mature Myelocytes: 0.12 ± 0.02 ×10^6/μL
Rat bone marrow cells [2]; Day 4, n = 3
  Number of Cells, Immature Myelocytes: —
Rat bone marrow cells [2]; Day 5, Mean ± SD, n = 3
  Number of Cells, Lymphocytes: 0.51 ± 0.08 ×10^6/μL
  Number of Cells, Mature Myelocytes: 0.03 ± 0.01 ×10^6/μL
Rat bone marrow cells [2]; Day 5, n = 3
  Number of Cells, Erythroblasts: —
  Number of Cells, Immature Myelocytes: —
Rat bone marrow cells [2]; day 1 to day 5
  Change of erythroblasts, in words: decreased to such an extent of the scarcely observed cells on day 3 of the experiment and thereafter
  Change of immature myelocytes, in words: decreased to such an extent of the scarcely observed cells on day 3 of the experiment and thereafter
  Change of lymphocytes, in words: decreased on day 3 of the experiment and thereafter
  Change of number of mature myelocytes, in words: temporarily increased from day 1 to day 3 of the experiment and then decreased on day 4 of the experiment and thereafter
